From ChEMBL document CHEMBL3044996, “Diatomaceous earths enhance the insecticidal effect of bitterbarkomycin against stored-grain insects” (2009)
Active and inactive are the calls of the source. The rule behind the calls is not given here.

How the values were obtained:
Cryptolestes ferrugineus [1] = assay: Reduction of progeny production in adult Cryptolestes ferrugineus (rusty grain beetle) at 0.0875 to 0.0375 to ppm exposed on wheat; assay type: functional, organism-based
Tribolium castaneum [2] = assay: Reduction of progeny production in adult Tribolium castaneum (red flour beetle) at 0.0875 to 0.0375 to ppm exposed on wheat; assay type: functional, organism-based
Sitophilus zeamais [3] = assay: Reduction of progeny production in adult Sitophilus zeamais at 0.0875 to 0.0375 to ppm exposed on wheat; assay type: functional, organism-based
Cryptolestes ferrugineus [4] = assay: Insecticidal activity against adult Cryptolestes ferrugineus (rusty grain beetle) assessed as mortality at 0.0875 ppm exposed for 14 days on wheat; assay type: functional; settings: 336 h
Cryptolestes ferrugineus [5] = assay: Insecticidal activity against adult Cryptolestes ferrugineus (rusty grain beetle) assessed as mortality at 0.075 ppm exposed for 14 days on wheat; assay type: functional; settings: 336 h
Cryptolestes ferrugineus [6] = assay: Insecticidal activity against adult Cryptolestes ferrugineus (rusty grain beetle) assessed as mortality at 0.0625 ppm exposed for 14 days on wheat; assay type: functional; settings: 336 h
Cryptolestes ferrugineus [7] = assay: Insecticidal activity against adult Cryptolestes ferrugineus (rusty grain beetle) assessed as mortality at 0.05 ppm exposed for 14 days on wheat; assay type: functional; settings: 336 h
Cryptolestes ferrugineus [8] = assay: Insecticidal activity against adult Cryptolestes ferrugineus (rusty grain beetle) assessed as mortality at 0.0375 ppm exposed for 14 days on wheat; assay type: functional; settings: 336 h
Cryptolestes ferrugineus [9] = assay: Insecticidal activity against adult Cryptolestes ferrugineus (rusty grain beetle) assessed as mortality at 0.0875 ppm exposed for 7 days on wheat; assay type: functional; settings: 168 h
Tribolium castaneum [10] = assay: Insecticidal activity against adult Tribolium castaneum (red flour beetle) assessed as mortality at 0.0875 ppm exposed for 7 days on wheat; assay type: functional
Tribolium castaneum [11] = assay: Insecticidal activity against adult Tribolium castaneum (red flour beetle) assessed as mortality at 0.0375 ppm exposed for 14 days on wheat; assay type: functional
Tribolium castaneum [12] = assay: Insecticidal activity against adult Tribolium castaneum (red flour beetle) assessed as mortality at 0.05 ppm exposed for 14 days on wheat; assay type: functional
Tribolium castaneum [13] = assay: Insecticidal activity against adult Tribolium castaneum (red flour beetle) assessed as mortality at 0.0625 ppm exposed for 14 days on wheat; assay type: functional
Sitophilus zeamais [14] = assay: Insecticidal activity against adult Sitophilus zeamais assessed as mortality at 0.05 ppm exposed for 7 days on wheat; assay type: functional
Sitophilus zeamais [15] = assay: Insecticidal activity against adult Sitophilus zeamais assessed as mortality at 0.0625 ppm exposed for 7 days on wheat; assay type: functional
Sitophilus zeamais [16] = assay: Insecticidal activity against adult Sitophilus zeamais assessed as mortality at 0.075 ppm exposed for 7 days on wheat; assay type: functional
Sitophilus zeamais [17] = assay: Insecticidal activity against adult Sitophilus zeamais assessed as mortality at 0.0875 ppm exposed for 7 days on wheat; assay type: functional
Sitophilus zeamais [18] = assay: Insecticidal activity against adult Sitophilus zeamais assessed as mortality at 0.0375 ppm exposed for 14 days on wheat; assay type: functional
Sitophilus zeamais [19] = assay: Insecticidal activity against adult Sitophilus zeamais assessed as mortality at 0.05 ppm exposed for 14 days on wheat; assay type: functional
Sitophilus zeamais [20] = assay: Insecticidal activity against adult Sitophilus zeamais assessed as mortality at 0.0625 ppm exposed for 14 days on wheat; assay type: functional
Sitophilus zeamais [21] = assay: Insecticidal activity against adult Sitophilus zeamais assessed as mortality at 0.075 ppm exposed for 14 days on wheat; assay type: functional
Sitophilus zeamais [22] = assay: Insecticidal activity against adult Sitophilus zeamais assessed as mortality at 0.0875 ppm exposed for 14 days on wheat; assay type: functional
Tribolium castaneum [23] = assay: Insecticidal activity against adult Tribolium castaneum (red flour beetle) assessed as mortality at 0.0375 ppm exposed for 5 days on wheat; assay type: functional
Tribolium castaneum [24] = assay: Insecticidal activity against adult Tribolium castaneum (red flour beetle) assessed as mortality at 0.05 ppm exposed for 5 days on wheat; assay type: functional
Tribolium castaneum [25] = assay: Insecticidal activity against adult Tribolium castaneum (red flour beetle) assessed as mortality at 0.0625 ppm exposed for 5 days on wheat; assay type: functional
Tribolium castaneum [26] = assay: Insecticidal activity against adult Tribolium castaneum (red flour beetle) assessed as mortality at 0.075 ppm exposed for 5 days on wheat; assay type: functional
Tribolium castaneum [27] = assay: Insecticidal activity against adult Tribolium castaneum (red flour beetle) assessed as mortality at 0.0875 ppm exposed for 5 days on wheat; assay type: functional
Tribolium castaneum [28] = assay: Insecticidal activity against adult Tribolium castaneum (red flour beetle) assessed as mortality at 0.0375 ppm exposed for 7 days on wheat; assay type: functional
Tribolium castaneum [29] = assay: Insecticidal activity against adult Tribolium castaneum (red flour beetle) assessed as mortality at 0.05 ppm exposed for 7 days on wheat; assay type: functional
Tribolium castaneum [30] = assay: Insecticidal activity against adult Tribolium castaneum (red flour beetle) assessed as mortality at 0.0625 ppm exposed for 7 days on wheat; assay type: functional
Tribolium castaneum [31] = assay: Insecticidal activity against adult Tribolium castaneum (red flour beetle) assessed as mortality at 0.075 ppm exposed for 7 days on wheat; assay type: functional
Tribolium castaneum [32] = assay: Insecticidal activity against adult Tribolium castaneum (red flour beetle) assessed as mortality at 0.075 ppm exposed for 14 days on wheat; assay type: functional
Tribolium castaneum [33] = assay: Insecticidal activity against adult Tribolium castaneum (red flour beetle) assessed as mortality at 0.0875 ppm exposed for 14 days on wheat; assay type: functional
Cryptolestes ferrugineus [34] = assay: Insecticidal activity against adult Cryptolestes ferrugineus (rusty grain beetle) assessed as mortality at 0.0375 ppm exposed for 5 days on wheat; assay type: functional; settings: 120 h
Cryptolestes ferrugineus [35] = assay: Insecticidal activity against adult Cryptolestes ferrugineus (rusty grain beetle) assessed as mortality at 0.05 ppm exposed for 5 days on wheat; assay type: functional; settings: 120 h
Cryptolestes ferrugineus [36] = assay: Insecticidal activity against adult Cryptolestes ferrugineus (rusty grain beetle) assessed as mortality at 0.0625 ppm exposed for 5 days on wheat; assay type: functional; settings: 120 h
Cryptolestes ferrugineus [37] = assay: Insecticidal activity against adult Cryptolestes ferrugineus (rusty grain beetle) assessed as mortality at 0.075 ppm exposed for 5 days on wheat; assay type: functional; settings: 120 h
Cryptolestes ferrugineus [38] = assay: Insecticidal activity against adult Cryptolestes ferrugineus (rusty grain beetle) assessed as mortality at 0.0875 ppm exposed for 5 days on wheat; assay type: functional; settings: 120 h
Cryptolestes ferrugineus [39] = assay: Insecticidal activity against adult Cryptolestes ferrugineus (rusty grain beetle) assessed as mortality at 0.075 ppm exposed for 7 days on wheat; assay type: functional; settings: 168 h
Cryptolestes ferrugineus [40] = assay: Insecticidal activity against adult Cryptolestes ferrugineus (rusty grain beetle) assessed as mortality at 0.0625 ppm exposed for 7 days on wheat; assay type: functional; settings: 168 h
Cryptolestes ferrugineus [41] = assay: Insecticidal activity against adult Cryptolestes ferrugineus (rusty grain beetle) assessed as mortality at 0.05 ppm exposed for 7 days on wheat; assay type: functional; settings: 168 h
Cryptolestes ferrugineus [42] = assay: Insecticidal activity against adult Cryptolestes ferrugineus (rusty grain beetle) assessed as mortality at 0.0375 ppm exposed for 7 days on wheat; assay type: functional; settings: 168 h
Sitophilus zeamais [43] = assay: Insecticidal activity against adult Sitophilus zeamais assessed as mortality at 0.075 ppm exposed for 5 days on wheat; assay type: functional
Sitophilus zeamais [44] = assay: Insecticidal activity against adult Sitophilus zeamais assessed as mortality at 0.0625 ppm exposed for 5 days on wheat; assay type: functional
Sitophilus zeamais [45] = assay: Insecticidal activity against adult Sitophilus zeamais assessed as mortality at 0.05 ppm exposed for 5 days on wheat; assay type: functional
Sitophilus zeamais [46] = assay: Insecticidal activity against adult Sitophilus zeamais assessed as mortality at 0.0375 ppm exposed for 5 days on wheat; assay type: functional
Sitophilus zeamais [47] = assay: Insecticidal activity against adult Sitophilus zeamais assessed as mortality at 0.0875 ppm exposed for 5 days on wheat; assay type: functional
Sitophilus zeamais [48] = assay: Insecticidal activity against adult Sitophilus zeamais assessed as mortality at 0.0375 ppm exposed for 7 days on wheat; assay type: functional

## CC(=O)O[C@H]1C[C@](C)(O)[C@]23OC(C)(C)[C@H]([C@H](OCC(C)C)[C@@H](OCc4ccccc4)[C@]2(COCC(C)C)[C@H]1OC(C)=O)[C@H]3O [BITTERBARKOMYCIN]
Cryptolestes ferrugineus [1]
  Activity: Active
Tribolium castaneum [2]
  Activity: Active
Sitophilus zeamais [3]
  Activity: Active
Cryptolestes ferrugineus [4]
  mortality at 0.0875 ppm: 100%
Cryptolestes ferrugineus [5]
  mortality at 0.075 ppm: 100%
Cryptolestes ferrugineus [6]
  mortality at 0.0625 ppm: 90.3%
Cryptolestes ferrugineus [7]
  mortality at 0.05 ppm: 86.7%
Cryptolestes ferrugineus [8]
  mortality at 0.0375 ppm: 83.8%
Cryptolestes ferrugineus [9]
  mortality at 0.0875 ppm: 100%
Tribolium castaneum [10]
  Activity: 68%
Tribolium castaneum [11]
  Activity: 66%
Tribolium castaneum [12]
  Activity: 86%
Tribolium castaneum [13]
  Activity: 95.8%
Sitophilus zeamais [14]
  Activity: 65.1%
Sitophilus zeamais [15]
  Activity: 72.2%
Sitophilus zeamais [16]
  Activity: 86%
Sitophilus zeamais [17]
  Activity: 90.4%
Sitophilus zeamais [18]
  Activity: 64.4%
Sitophilus zeamais [19]
  Activity: 73.8%
Sitophilus zeamais [20]
  Activity: 83.1%
Sitophilus zeamais [21]
  Activity: 92.9%
Sitophilus zeamais [22]
  Activity: 98.2%
Tribolium castaneum [23]
  Activity: 19.6%
Tribolium castaneum [24]
  Activity: 21.8%
Tribolium castaneum [25]
  Activity: 23.3%
Tribolium castaneum [26]
  Activity: 33.6%
Tribolium castaneum [27]
  Activity: 50%
Tribolium castaneum [28]
  Activity: 48.2%
Tribolium castaneum [29]
  Activity: 56.2%
Tribolium castaneum [30]
  Activity: 60.4%
Tribolium castaneum [31]
  Activity: 63.1%
Tribolium castaneum [32]
  Activity: 99.6%
Tribolium castaneum [33]
  Activity: 100%
Cryptolestes ferrugineus [34]
  mortality at 0.0375 ppm: 44.7%
Cryptolestes ferrugineus [35]
  mortality at 0.05 ppm: 47.6%
Cryptolestes ferrugineus [36]
  mortality at 0.0625 ppm: 53.1%
Cryptolestes ferrugineus [37]
  mortality at 0.075 ppm: 88.4%
Cryptolestes ferrugineus [38]
  mortality at 0.0875 ppm: 92.9%
Cryptolestes ferrugineus [39]
  mortality at 0.075 ppm: 98.2%
Cryptolestes ferrugineus [40]
  mortality at 0.0625 ppm: 76.1%
Cryptolestes ferrugineus [41]
  mortality at 0.05 ppm: 70.7%
Cryptolestes ferrugineus [42]
  mortality at 0.0375 ppm: 64%
Sitophilus zeamais [43]
  Activity: 80.2%
Sitophilus zeamais [44]
  Activity: 68.4%
Sitophilus zeamais [45]
  Activity: 59.1%
Sitophilus zeamais [46]
  Activity: 39.8%
Sitophilus zeamais [47]
  Activity: 85.3%
Sitophilus zeamais [48]
  Activity: 52.4%
